The values that follow come from PMC3277640 (Proteins, 2011).

Where two headings read alike, the source gives them in different places. Ends that are not written are not given here.

The Kd is the equilibrium constant for the complex coming apart. Higher therefore signals a looser complex.

In one data set the target is SPase I Δ2-75 (Escherichia coli, UniProt P00803). The settings on record: data not shown.
The target in data set [1] is T1, KAP25 alkaline phosphatase signal peptide signal peptide (Escherichia coli, UniProt P00634 = phosphatase).
T1 chain: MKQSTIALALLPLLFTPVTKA
Kind of data set: fluorescence.

Consider “KKKMKQSTIALALLPLLFTPVTKARTPEKKK-NH2 [KAP25]”, for which the “cleavage of KAP25 signal peptide” value is “about 7%” on SPase I Δ2-75 (24 hours of incubation with the enzyme), about 19% on SPase I Δ2-75 (36 hours of incubation with the enzyme) and about 27% at SPase I Δ2-75 (48 hours of incubation with the enzyme).

B1: Signal peptidase I cytoplasmic domain (protein)
chain: IVRSFIYEPFQIPSGSMMPTLLIGDFILVEKFAYGIKDPIYQKTLIETGHPKRGDIVVFKYPEDPKLDYIKRAVGLPGDKVTYDPVSKELTIQPGCSSGQACENALPVTYSNVEPSDFVQTFSRRNGGEATSGFFEVPKNETKENGIRLSERKETLGDVTHRILTVPIAQDQVGMYYQQPGQQLATWIVPPGQYFMMGDNRDNSADSRYWGFVPEANLVGRATAIWMSFDKQEGEWPTGLRLSRIGGIH
B1 showed an equilibrium dissociation constant (Kd) in data set [1] of 250 nM.
